Data from publication PMC3669624 (Molecular Cancer, 2013).
Where two headings read alike, the source gives them in different places.

Assays:
5637 = test: Cell anti-proliferative effect (MTT test); assay type: cell-based; details: Homo sapiens, 48 h, read-out: EC50 antiproliferative effect
Protocol: (§1) UMUC-3, 5637, TCC sup cells and J82 (ATCC, Manassas, VA, USA), derived from human transitional cell carcinoma of the bladder, were routinely cultured in MEM supplemented with 10% fetal bovine serum, 2 mM glutamine, 100 U/mL penicillin, 100 μg/mL streptomycin, 1X NEAA and 1 mM sodium pyruvate. All components were purchased form Invitrogen Corportion (Cergy Pontoise, France), in a humidified incubator at 37°C with a 5% CO2 atmosphere. Caco-2 (IRCCS “S. De Bellis”, Castellana Grotte, Italy), MDCK-MDR1, MDCK-MRP1 (gift of Prof. P. Borst, NKI-AVL Institute, Amsterdam, Netherlands) and MDCK-BCRP cells (gift of Dr. A. Schinkel, NKI-AVL Institute, Amsterdam, Netherlands) were grown in DMEM medium with 10% heat-inactivated fetal calf serum, 100 U/mL penicillin, 100 μg/mL streptomycin and 2 mM L-glutamine (Invitrogen) in a humidified incubator at 37°C with a 5% CO2 atmosphere. The cells were trypsinized twice a week with trypsin/ethylenediaminetetraacetic acid (EDTA) (0.05%/0.02%) and the medium was changed twice a week.
(§2) Afterwords, 10 μl of 3-[4,5-dimethylthiazol-2-yl]-2,5-diphenyltetrazoliumbromide (MTT) freshly prepared solution (5 mg/ml in PBS) (Sigma) was added in each well, and the plate was incubated in a humidified atmosphere 5% CO2 at 37° for 3–4 h. MTT solution was removed and 200 μL of EtOH/DMSO (1:1) was added to each well to dissolve the blue formazan solid crystals. The optical density was measured at 570 nm and 650 nm wavelenghts using Victor3 (PerkinElmer, Waltham, MA, USA). The results are expressed as EC50 values, obtained from non-linear iterative curve fitting by Prism v.3.0, GraphPad software (GraphPad Software, Inc. San Diego, USA).

J82 = test: Cell anti-proliferative effect (MTT test); assay type: cell-based; details: Homo sapiens, read-out: EC50 antiproliferative effect
Protocol: as §1, §2

TCC sup = test: Cell anti-proliferative effect (MTT test); assay type: cell-based; details: Homo sapiens, 48 h, read-out: EC50 antiproliferative effect
Protocol: as §1, §2

UMUC3 = test: Cell anti-proliferative effect (MTT test); assay type: cell-based; details: Homo sapiens, read-out: EC50 antiproliferative effect
Protocol: as §1, §2

UMUC-3- CX = test: Cell anti-proliferative effect (MTT test); assay type: cell-based, human; details: for EC50: Homo sapiens, read-out: EC50 antiproliferative effect
Protocol: as §1
The pSG5-COX-2 plasmid, which contains a full-length human COX-2 cDNA in the pSG expression vector [23], was used for COX-2 transfection. The plasmid DNA was introduced into UMUC-3 cells using Lipofectamine LTX (Invitrogen). Briefly, 2.5 μg of plasmid DNA and 6.25 μl of Lipofectamine LTX were combined in 500 μl of OpTI-MEM*I reduced serum medium (Invitrogen) and allowed to stand at room temperature for 30 minutes. UMUC-3 cells were plated at 1X105 cells/well in six-well plates. After overnight attachment, the Lipofectamine mixture was applied to cells. After 5 hours of transfection, the medium was removed and complete medium was added. After 48 hours, geneticin G418 (Invitrogen) was added to cells at a concentration of […]. Cell lines were obtained from individual colonies using cloning cylinders. UMUC-3-CX overexpressing cells were obtained and were continuously cultured in complete medium with the addition of 800 μg/ml G418.
as §2

5637 si-CX = test: Cell anti-proliferative effect (MTT test); assay type: cell-based; details: Homo sapiens, 48 h, read-out: EC50 antiproliferative effect
Protocol: UMUC-3, 5637, TCC sup cells and J82 (ATCC, Manassas, VA, USA), derived from human transitional cell carcinoma of the bladder, were routinely cultured in MEM supplemented with 10% fetal bovine serum, 2 mM glutamine, 100 U/mL penicillin, 100 μg/mL streptomycin, 1X NEAA and 1 mM sodium pyruvate. All components were purchased form Invitrogen Corportion (Cergy Pontoise, France), in a humidified incubator at 37°C with a 5% CO2 atmosphere. Caco-2 (IRCCS “S. De Bellis”, Castellana Grotte, Italy), MDCK-MDR1, MDCK-MRP1 (gift of Prof. P. Borst, NKI-AVL Institute, Amsterdam, Netherlands) and MDCK-BCRP cells (gift of Dr. A. Schinkel, NKI-AVL Institute, Amsterdam, Netherlands) were grown in DMEM medium with 10% heat-inactivated fetal calf serum, 100 U/mL penicillin, 100 μg/mL streptomycin and 2 mM L-glutamine (Invitrogen) in a humidified incubator at 37°C with a 5% CO2 atmosphere. […]
as §2, with “MTT solution was removed and 200 μL of EtOH/DMSO (1:1) was added to each well to dissolve the blue formazan solid crystals.” left out

P-gp = P-gp (Homo sapiens, UniProt P08183); test: Drug transport experiment, Caco-2 monolayer apparent permeability; assay type: in vitro ADME
P-gp, sequence (P08183 whole entry): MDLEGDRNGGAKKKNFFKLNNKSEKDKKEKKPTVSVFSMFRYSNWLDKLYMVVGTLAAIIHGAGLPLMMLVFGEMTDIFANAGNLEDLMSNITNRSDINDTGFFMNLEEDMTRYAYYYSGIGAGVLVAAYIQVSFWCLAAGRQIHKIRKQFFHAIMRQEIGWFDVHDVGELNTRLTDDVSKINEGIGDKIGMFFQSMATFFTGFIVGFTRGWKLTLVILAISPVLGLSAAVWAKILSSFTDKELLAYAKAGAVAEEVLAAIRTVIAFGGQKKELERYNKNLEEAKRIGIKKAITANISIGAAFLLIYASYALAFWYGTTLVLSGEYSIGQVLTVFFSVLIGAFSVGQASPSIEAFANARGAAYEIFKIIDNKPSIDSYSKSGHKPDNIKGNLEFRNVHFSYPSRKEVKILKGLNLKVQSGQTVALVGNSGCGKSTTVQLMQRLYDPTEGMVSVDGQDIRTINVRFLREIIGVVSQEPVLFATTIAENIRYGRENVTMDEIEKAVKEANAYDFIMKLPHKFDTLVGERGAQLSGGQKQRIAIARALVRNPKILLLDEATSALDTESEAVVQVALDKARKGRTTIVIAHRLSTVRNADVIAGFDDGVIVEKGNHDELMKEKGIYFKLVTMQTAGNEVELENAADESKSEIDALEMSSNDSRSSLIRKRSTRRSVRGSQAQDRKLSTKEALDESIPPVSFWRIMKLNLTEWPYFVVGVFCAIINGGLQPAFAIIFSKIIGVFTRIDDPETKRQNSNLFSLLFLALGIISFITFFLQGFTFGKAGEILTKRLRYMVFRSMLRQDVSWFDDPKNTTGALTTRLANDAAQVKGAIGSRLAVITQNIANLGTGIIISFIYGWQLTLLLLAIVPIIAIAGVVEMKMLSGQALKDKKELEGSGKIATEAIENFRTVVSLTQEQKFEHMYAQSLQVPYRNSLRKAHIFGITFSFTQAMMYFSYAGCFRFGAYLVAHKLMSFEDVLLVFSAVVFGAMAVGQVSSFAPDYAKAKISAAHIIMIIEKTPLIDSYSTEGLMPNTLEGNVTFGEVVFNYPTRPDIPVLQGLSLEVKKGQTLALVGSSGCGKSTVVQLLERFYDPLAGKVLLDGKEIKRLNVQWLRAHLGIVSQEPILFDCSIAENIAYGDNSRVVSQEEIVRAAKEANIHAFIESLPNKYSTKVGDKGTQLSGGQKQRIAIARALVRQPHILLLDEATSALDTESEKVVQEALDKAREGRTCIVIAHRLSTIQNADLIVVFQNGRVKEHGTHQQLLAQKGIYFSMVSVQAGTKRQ

Caco-2 cells = test: Cell ATP availability assay; assay type: cell-based
Protocol: Caco-2 cells were seeded into 96-well microplate in 100 μL of complete medium at a density 2×10^4 cells/well. The plate was incubated O/N in a humidified atmosphere (5% CO2 at 37°C). The medium was removed and 100 μL of complete medium were added, in the presence or absence of different concentrations of test compounds. The plate was again incubated for 2 h in a humidified atmosphere. Then, 50 μl of mammalian cell lysis solution were added to all wells and the plate stirred for 5 min in an orbital shaker. In all wells, 50 μl of substrate solution were added, and the plate stirred for 5 min as above reported. The plate was dark adapted for 10 min and the luminescence measured in Victor3 (PerkinElmer) [26].

UMUC-3 cells = test: Intracellular mitomycin C accumulation (flow cytometry); assay type: cell-based, human; details: UMUC-3, 1 day celecoxib then 1 day MMC and celecoxib
Protocol: (§3) After incubation, the cell medium was removed and trypsin/EDTA was used to detach the cells from the plates. Cells were harvested, washed twice in ice-cold PBS (pH 7.4), and placed on ice (<1 hour) until analysis. Analysis was performed using a 530/30 filter (FL1-H [height of fluorescence intensity]). Fluorescence measurements of individual cells were done with a Becton Dickinson FACScan equipped with an […] argon laser. Analysis was gated to include single cells, based on forward and side light scatter, and was based on the acquisition of data from 10,000 cells.

UMUC-3-CX cells = test: as above; assay type: cell-based, human; details: 1 day celecoxib then 1 day MMC and celecoxib
Protocol: as §3

MRP1 = MRP1 (Homo sapiens, UniProt P33527); test: cell-based
MRP1, sequence (P33527 whole entry): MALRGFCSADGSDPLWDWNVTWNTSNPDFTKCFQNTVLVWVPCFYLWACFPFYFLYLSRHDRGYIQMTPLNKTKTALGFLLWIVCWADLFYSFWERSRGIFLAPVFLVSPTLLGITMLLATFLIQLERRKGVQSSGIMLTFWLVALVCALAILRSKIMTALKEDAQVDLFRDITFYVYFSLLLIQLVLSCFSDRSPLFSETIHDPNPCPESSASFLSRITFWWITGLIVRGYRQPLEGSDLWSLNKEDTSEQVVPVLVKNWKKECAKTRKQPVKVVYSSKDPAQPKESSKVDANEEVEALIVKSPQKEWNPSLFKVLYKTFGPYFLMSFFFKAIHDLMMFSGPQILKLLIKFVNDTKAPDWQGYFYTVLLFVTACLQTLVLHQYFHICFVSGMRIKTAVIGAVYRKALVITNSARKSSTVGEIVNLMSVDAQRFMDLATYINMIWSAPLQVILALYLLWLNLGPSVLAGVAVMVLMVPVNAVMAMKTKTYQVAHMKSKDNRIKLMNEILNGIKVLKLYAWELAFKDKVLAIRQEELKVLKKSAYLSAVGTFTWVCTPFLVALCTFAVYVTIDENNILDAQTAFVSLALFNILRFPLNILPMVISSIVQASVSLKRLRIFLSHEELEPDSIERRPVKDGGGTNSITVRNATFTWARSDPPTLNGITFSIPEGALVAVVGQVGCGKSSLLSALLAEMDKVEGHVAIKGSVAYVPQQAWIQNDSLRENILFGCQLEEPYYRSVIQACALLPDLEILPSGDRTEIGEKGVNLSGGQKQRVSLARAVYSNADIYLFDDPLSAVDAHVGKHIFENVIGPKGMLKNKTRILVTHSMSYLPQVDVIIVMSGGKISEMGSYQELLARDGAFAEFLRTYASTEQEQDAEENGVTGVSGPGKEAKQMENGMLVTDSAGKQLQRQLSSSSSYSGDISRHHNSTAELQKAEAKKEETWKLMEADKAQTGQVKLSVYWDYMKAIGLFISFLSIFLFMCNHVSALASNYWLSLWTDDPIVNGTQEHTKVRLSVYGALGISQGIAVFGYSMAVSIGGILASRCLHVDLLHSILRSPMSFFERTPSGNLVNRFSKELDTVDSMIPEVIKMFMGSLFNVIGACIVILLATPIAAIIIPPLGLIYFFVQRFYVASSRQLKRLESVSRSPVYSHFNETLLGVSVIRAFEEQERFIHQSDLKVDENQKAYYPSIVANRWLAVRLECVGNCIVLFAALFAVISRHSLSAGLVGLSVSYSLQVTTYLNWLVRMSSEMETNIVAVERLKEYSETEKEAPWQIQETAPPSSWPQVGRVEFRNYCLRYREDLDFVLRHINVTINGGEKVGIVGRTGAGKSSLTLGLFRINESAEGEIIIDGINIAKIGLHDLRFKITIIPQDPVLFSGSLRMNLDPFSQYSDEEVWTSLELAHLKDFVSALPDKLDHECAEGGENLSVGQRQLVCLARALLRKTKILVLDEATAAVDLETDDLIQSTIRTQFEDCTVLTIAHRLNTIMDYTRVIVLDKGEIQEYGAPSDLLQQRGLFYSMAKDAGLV
Protocol: (§4) The method was adapted from Eneroth et al. [27] and Korjamo et al. [28] with minor modifications. Briefly, each cell line was seeded into a black Cultureplate (PerkinElmer) 96/wells plate with 100 μl medium and allowed to become confluent overnight. Test compounds were solubilized in 100 μl of culture medium and added. […] In treated wells the increase of fluorescence as compared to basal level was measured. The half maximal effective concentration (EC50) values were determined by fitting the fluorescence increase percentage versus log[dose]

BCRP = molecular target: T1, BCRP (Homo sapiens, UniProt Q9UNQ0); test: cell-based
T1 sequence (Q9UNQ0 1-655): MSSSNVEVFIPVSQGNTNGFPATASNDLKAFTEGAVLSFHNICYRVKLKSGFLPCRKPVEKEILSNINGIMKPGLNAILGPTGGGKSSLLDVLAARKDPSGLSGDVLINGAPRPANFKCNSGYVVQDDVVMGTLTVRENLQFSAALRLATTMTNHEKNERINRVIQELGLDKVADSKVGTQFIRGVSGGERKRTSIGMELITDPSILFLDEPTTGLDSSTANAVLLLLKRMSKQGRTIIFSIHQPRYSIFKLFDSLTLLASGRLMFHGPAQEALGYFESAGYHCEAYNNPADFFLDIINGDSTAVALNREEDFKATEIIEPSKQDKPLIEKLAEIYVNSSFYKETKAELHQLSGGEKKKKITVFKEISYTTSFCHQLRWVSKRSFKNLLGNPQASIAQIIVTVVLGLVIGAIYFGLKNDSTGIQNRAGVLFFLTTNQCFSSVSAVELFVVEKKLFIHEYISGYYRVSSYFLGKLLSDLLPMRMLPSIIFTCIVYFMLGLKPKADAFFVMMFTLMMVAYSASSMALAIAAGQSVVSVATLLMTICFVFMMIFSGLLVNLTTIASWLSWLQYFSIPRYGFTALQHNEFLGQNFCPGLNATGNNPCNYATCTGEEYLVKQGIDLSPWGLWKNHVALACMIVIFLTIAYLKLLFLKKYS
Protocol: as §4

## Cc1ccc(-c2cc(C(F)(F)F)nn2-c2ccc(S(N)(=O)=O)cc2)cc1 [Celecoxib, celecoxib]
5637
  EC50: > 50 µM
J82; J82, 48 h
  EC50: 11.6 ± 0.31 µM
TCC sup; TCC-SUP
  EC50: 15.7 ± 0.5 µM
UMUC3; UMUC3, 48 h
  EC50: 14.2 ± 0.7 µM
UMUC-3- CX; UMUC3, 48 h
  EC50: 16.3 ± 0.8 µM
5637 si-CX
  EC50: > 50 µM
P-gp; from drug transport, substrate transport inhibition and ATP cell depletion assays combined
  Classification of P-gp interaction (Polli's classification): P-gp unambiguous substrate
P-gp; human, Caco-2 monolayer, apical-basolateral flux, 120 min
  Papp A→B at 120 min, 100 µM: 13.7 ×10⁻⁶ cm/s
P-gp; human, Caco-2 monolayer, basolateral-apical flux, 120 min
  Papp B→A at 120 min, 100 µM: 103 ×10⁻⁶ cm/s
Caco-2 cells
  ATP cell depletion: decreased ATP levels in a time- and dose-dependent fashion
UMUC-3 cells
  Effect on MMC intracellular accumulation: not seen
UMUC-3-CX cells
  Effect on MMC intracellular accumulation: increase of intracellular MMC concentration
MRP1
  EC50: 10.1 ± 0.5 µM
BCRP
  EC50: 24.1 ± 1.2 µM

## CO[C@@]12[C@H](COC(N)=O)C3=C(C(=O)C(C)=C(N)C3=O)N1C[C@@H]1N[C@@H]12 [Mitomycin C]
5637; 5637, compound alone
  EC50: 0.93 ± 0.04 µM
J82; J82, compound alone, 48 h
  EC50: 0.64 ± 0.09 µM
TCC sup; TCC sup, compound alone
  EC50: 0.83 ± 0.07 µM
UMUC3; UMUC3, compound alone, 48 h
  EC50: 1.69 ± 0.09 µM
UMUC-3- CX; UMUC3, UMUC-3-CX, compound alone, 48 h
  EC50: 13 ± 1 µM
UMUC-3- CX; UMUC-3-CX, celecoxib 1 μM, 5 μM and 10 μM, 48 h, listed as MMC
  Fold improvement of MMC anti-proliferative activity by co-administration of celecoxib compared to MMC alone: 2–3 fold
UMUC-3- CX; UMUC-3 versus UMUC-3-CX, 48 h
  Anti-proliferative effect of MMC alone, fold greater in UMUC-3 than in UMUC-3-CX: 8 fold
5637 si-CX; 5637 si-CX, compound alone
  EC50: 0.62 ± 0.05 µM
